Test results: paper PMC6418145 (Scientific Reports, 2019)

Legend:
[1] = target: T1, hM4Di (Homo sapiens, UniProt P08173, A203G/Y113C); assay: FLIPR Ca2+ oscillation assay in primary rat neuronal cultures transduced with hM4Di; assay type: cell-based
T1 construct: expressed in transfected cells; host or cells: primary cortical neurons of embryonic (E18) Sprague-Dawley rats, AAV-transduced
T1 sequence (P08173 1-479 Y113C/A203G): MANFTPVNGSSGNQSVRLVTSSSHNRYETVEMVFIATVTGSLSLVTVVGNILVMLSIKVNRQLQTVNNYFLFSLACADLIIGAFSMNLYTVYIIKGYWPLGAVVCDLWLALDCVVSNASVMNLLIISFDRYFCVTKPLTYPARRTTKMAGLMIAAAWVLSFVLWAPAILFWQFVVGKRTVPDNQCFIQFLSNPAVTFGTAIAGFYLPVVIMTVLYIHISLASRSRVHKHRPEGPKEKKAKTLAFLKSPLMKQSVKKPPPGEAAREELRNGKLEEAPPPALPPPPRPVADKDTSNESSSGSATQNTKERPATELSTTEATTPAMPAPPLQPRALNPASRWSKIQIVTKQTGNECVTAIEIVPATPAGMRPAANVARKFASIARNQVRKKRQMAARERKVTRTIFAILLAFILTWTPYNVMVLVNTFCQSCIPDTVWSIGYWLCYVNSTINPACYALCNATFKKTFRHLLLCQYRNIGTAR
Method: Briefly, cortices were dissected from embryonic brains, meninges were removed, and cortices transferred into ice-cold dissociation buffer (2 mM kynurenic acid, 10 mM HEPES, 20 mM MgCl2 (Fluka, Germany) and 33.4 mM Glucose in Hank’s Balanced Salt Solution (HBSS), pH 7.4 (Gibco, Thermo Fischer Scientific, Massachusetts, USA). Cortices were then dissociated in 20 units/ml papain solution (5.5 mM L- Cysteine hydrochloride, 1.1 mM ethylenediamine tetra-acetic acid [EDTA], 0.067 mM 2-Mercaptoethanol in Minimum Essential Medium [MEM]) for 15 min at 37 °C. Cortices were washed twice by adding 20 ml plating medium (1:50 foetal calve serum, 1:100 penicillin/streptomycin and 1:100 GlutaMax in MEM) followed by cell filtration using a 70 µm cell strainer (Corning, model #352350, Merck, Germany) to obtain a single-cell suspension. Dissociated cells were re-suspended in serum-free Neurobasal medium with Glutamax and B27 supplement (Gibco) and plated on PDL-coated 96 MTPs (Corning #356640). Virus (ssAAV-1/2-hSyn1-hM4D[Gi]_mCherry-WPRE-hGHp[A]) transduction was performed immediately after plating. Cells were maintained at 37 °C (5% CO2 and 10% O2) in a humidified incubator. A half feed medium change was done on DIV8. Final assay conditions used for evaluating activity of compounds were 0.95 × 10^5 cells/cm^2, transduced with 10.000 multiplicity of infection and measured on DIV9.
Medium was removed and cells were incubated in assay buffer (HBSS, Gibco, 10 mM HEPES, pH 7.4) containing 4 µM Fluo-4AM (Thermo Fischer Scientific) and 0.1% Pluronic F-127 (Thermo Fischer Scientific #P3000MP) for 1 h at room temperature in the dark. Loading buffer was then replaced with assay buffer. After 10 min, assay plates were measured in the FLIPR tetra (Molecular Devices, California, USA) using green fluorescence filter settings (excitation 470–495 nm, emission 515–575 nm). Fluorescence signals were recorded at 1 s intervals (0.4 s exposure time). Compound addition was automated in a single addition protocol. Tested compounds (concentrations:0.3 nM–1 µM; retigabine at 30 µM) were added after recording a baseline response for 5 min followed by another 5 min for recording compound effects on Ca^2+ oscillations. Each compound dose was repeated on three individual plates in duplicates.
Time-series raw fluorescence traces recorded from the FLIPR assay were analysed by detecting Ca^2+ peaks based on a fixed amplitude threshold[19]. The change in oscillation frequency was determined by counting the number of peaks in a defined time interval (5 min) before and after addition of the tested compound and calculating the Ca^2+ oscillations frequency from their number. […] For visualisation, all data were transferred to GraphPad Prism 7 (Graphpad Software, Inc., CA, USA).

[2] = target: T2, α1A adrenoreceptor (Homo sapiens, UniProt P35348); assay: Off-target radioligand binding; conditions: 10 μM compound
T2 construct: expressed in transfected cells; host or cells: HEK-293 or CHO

[3] = system: hM3Dq; design: method as in PMID 25587888; conditions: FLIPR assay; cited from earlier work
[4] = target: COX1 (Homo sapiens, UniProt P23219); assay: Off-target enzyme assay; assay type: biochemical; conditions: 10 μM compound, not shown
[5] = target: T3, α2A adrenoreceptor (Homo sapiens, UniProt P08913); assay: Off-target radioligand binding; conditions: 10 μM compound
T3 construct: expressed in transfected cells; host or cells: HEK-293 or CHO

[6] = system: 5-HT1B serotonin receptor; assay: Off-target radioligand binding; design: species or system human; conditions: 10 μM compound
[7] = system: C57BL/6 J mice; assay: 5-choice serial-reaction-time task (5-CSRTT), unspecific behavioural effects; assay type: in vivo
Method: Training was performed in 16 standard mouse Bussey-Saksida touchscreen chambers (model #80614, Campden Instruments Ltd., UK), previously described in detail. In short, each trapezoidal operant chamber was placed in a sound- and light- attenuating box individually equipped with a house light, a reward magazine with light, a liquid reward dispenser, a sound generator, a perforated stainless steel floor, and a touchscreen placed at the wide end of the chamber and covered permanently by a black acrylic glass 5-hole mask. The reward magazine, located opposite the touchscreen, was connected to a liquid dispenser delivering strawberry milk (Yazoo®). Infrared break-beam sensors located inside and on the front of the food magazine as well as on the touch-screen walls allowed the detection of reward delivery and the animal’s locomotor activity, respectively. Four individual chambers were connected to one computer for controlling the task flow using the graphical task design software ABET II Touch (model #89505, Campden Instruments Ltd., UK) and the WhiskerServer software (Cambridge University Technical Services Ltd., UK)[27].
Mice were habituated to the chambers for three consecutive 20-min sessions during which the house light and magazine light were permanently on. At the start of each session, 30 µl strawberry milk was delivered. Every 15 s after head entry into the magazine, an additional 30 µl strawberry milk was delivered. Head entry turned the magazine light off.
The 5-CSRTT training protocol, originally designed for rats[28], was similar as that previously described for mice[29]–[31]. The training comprised six stages with 30-min sessions initiated by the illumination of the house and magazine lights and delivery of 20 µl strawberry milk. Collection of the reward switched the magazine light off and started the first trial.
In the first stage, the middle window was permanently illuminated, which was turned off when touched, followed by reward delivery (20 µl) with illumination of the magazine light. Head entry switched off the magazine light. Mice performing 30 trials in a session continued to the next stage. Training sessions in stages 2–6 comprised a maximum of 120 trials. Collection of the reward initiated the inter-trial interval (ITI) followed by the illumination of one pseudo-randomly selected aperture for a fixed stimulus duration (SD). Any touch to the screen during the ITI was classified as a premature response which was not counted as a trial and terminated the current trial. Following stimulus detection, a nose poke to the corresponding aperture within a fixed time interval (limited hold; LH) was required for reward delivery. Premature responses made during the ITI, incorrect responses, and the omission of a response within the LH led to a timeout (TO, house light switched off for 4 s) instead of delivery of reward. Correct, incorrect and omitted responses defined the total number of trials. […] The criteria to pass the last stage and reach baseline performance were to complete >30 correct trials, with ≥80% accuracy and ≤30% omissions. Percentage accuracy was defined as the number of correct trials divided by the sum of correct and incorrect trials. Percentage omissions were calculated in terms of the number of completed trials. Premature responding was calculated as a percentage of completed trials. Perseveration was calculated as the number of additional responses made in the same aperture following a correct response. Additionally, the correct-response latency (time from stimulus presentation to correct response) and reward latency (time from correct response to reward collection) were measured across all trials.
Either one or up to three days before, as well as one day after the task challenge, mice were trained at baseline conditions to check for any unexpected changes in task performance (e.g. by long lasting drug- or challenge-induced effects). […]

[8] = target: COX2 (Homo sapiens, UniProt P35354); assay: Off-target enzyme assay; assay type: biochemical; conditions: 10 μM compound, not shown
[9] = target: T4, M1 muscarinic receptor (Homo sapiens, UniProt P11229); assay: Off-target radioligand binding; conditions: 10 μM compound
T4 construct: expressed in transfected cells; host or cells: HEK-293 or CHO

[10] = target: T5, 5-HT2B serotonin receptor (Homo sapiens, UniProt P41595); assay: Off-target radioligand binding
T5 construct: expressed in transfected cells; host or cells: HEK-293 or CHO

[11] = Pharmacokinetics in plasma, CSF and cortical brain tissue after i.p. injection; conditions: mice; for mean concentration in brain: cortical tissue
Method: Blood (approximately 100 µl) was collected from the vena facialis in anaesthetised animals, followed by CSF sampling (approximately 10 µl) from the cisterna magna under pentobarbital anaesthesia (1:25 in saline, 10 ml/kg, i.p., Narcoren, Boehringer Ingelheim, Germany). Subsequently, the brain was removed and its anterior third (including the medial prefrontal and anterior cingulate cortices) dissected and transferred into Precellys tubes cooled in liquid nitrogen. For plasma extraction, blood was transferred to EDTA coated tubes and centrifuged for 10 min at 10,000 rpm at 4 °C. Maximal plasma concentration (Cmax), time taken to reach maximal plasma concentration (Tmax) and mean residence time were assessed using liquid chromatography–mass spectrometry analysis executed on the HP1200 (Agilent, CA, USA) coupled to the API 6500 (AB Sciex, Germany) using BI00001052 (Boehringer Ingelheim) as internal standard. In short, 5 µl of plasma or CSF sample were mixed with 10 nl internal standard. 70 µl acetonitrile (ACN)/methanol (1:1) was added, kept at −20 °C for 15 min and centrifuged for 4 min at 4000 rpm at 4 °C. 30 µl of the supernatant was mixed with 170 µl 0.1% formic acid. Brain homogenization was executed by Precellys Evolution (Bertin) after adding ACN/methanol (1:1)/aq.dest. (3:1) to each brain sample with a volume corresponding to 4 parts of the brain weight, followed by centrifugation for 1 min at 4000 rpm at 4 °C. 5 µl of the supernatant was mixed with 10 nl of internal standard.

[12] = target: T6, M3 muscarinic receptor (Homo sapiens, UniProt P20309); assay: Off-target radioligand binding; conditions: 10 μM compound
T6 construct: expressed in transfected cells; host or cells: HEK-293 or CHO

[13] = target: T7, H1 histamine receptor (Homo sapiens, UniProt P35367); assay: Off-target radioligand binding
T7 construct: expressed in transfected cells; host or cells: HEK-293 or CHO

[14] = target: T8, M2 muscarinic receptor (Homo sapiens, UniProt P08172); assay: Off-target radioligand binding; conditions: 10 μM compound
T8 construct: expressed in transfected cells; host or cells: HEK-293 or CHO

[15] = 15 min after i.p. 3.5 mg/kg CNO
[16] = 30 min after i.p. 3.5 mg/kg CNO
[17] = 60 min after i.p. 3.5 mg/kg CNO

T7 sequence (P35367 whole entry): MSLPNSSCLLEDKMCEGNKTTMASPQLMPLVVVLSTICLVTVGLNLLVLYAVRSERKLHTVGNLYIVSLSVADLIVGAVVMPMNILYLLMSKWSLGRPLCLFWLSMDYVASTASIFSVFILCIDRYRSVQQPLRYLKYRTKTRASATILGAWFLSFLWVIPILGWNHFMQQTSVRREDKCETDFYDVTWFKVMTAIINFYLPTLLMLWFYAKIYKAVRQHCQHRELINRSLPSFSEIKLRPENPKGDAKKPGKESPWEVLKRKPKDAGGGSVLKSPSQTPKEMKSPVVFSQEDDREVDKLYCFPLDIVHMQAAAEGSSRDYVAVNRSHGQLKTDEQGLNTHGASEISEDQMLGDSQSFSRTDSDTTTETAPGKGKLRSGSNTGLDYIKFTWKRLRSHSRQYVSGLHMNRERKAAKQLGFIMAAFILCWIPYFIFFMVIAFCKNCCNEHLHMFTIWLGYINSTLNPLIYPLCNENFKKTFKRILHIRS
T5 sequence (P41595 whole entry): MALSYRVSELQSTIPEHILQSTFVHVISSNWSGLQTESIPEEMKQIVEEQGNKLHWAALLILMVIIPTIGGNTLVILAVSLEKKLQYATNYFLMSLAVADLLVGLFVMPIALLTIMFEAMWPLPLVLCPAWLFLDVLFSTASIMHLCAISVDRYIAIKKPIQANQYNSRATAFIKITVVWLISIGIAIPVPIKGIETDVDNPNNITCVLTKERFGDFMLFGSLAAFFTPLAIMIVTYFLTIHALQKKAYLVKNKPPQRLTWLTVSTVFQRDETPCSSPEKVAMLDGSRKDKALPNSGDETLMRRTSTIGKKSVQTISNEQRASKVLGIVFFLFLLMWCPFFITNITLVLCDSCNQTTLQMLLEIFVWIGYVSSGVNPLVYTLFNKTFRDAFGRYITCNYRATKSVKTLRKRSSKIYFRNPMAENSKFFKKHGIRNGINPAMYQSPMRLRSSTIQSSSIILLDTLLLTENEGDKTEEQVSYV
Sequence of COX2 (P35354 18-604): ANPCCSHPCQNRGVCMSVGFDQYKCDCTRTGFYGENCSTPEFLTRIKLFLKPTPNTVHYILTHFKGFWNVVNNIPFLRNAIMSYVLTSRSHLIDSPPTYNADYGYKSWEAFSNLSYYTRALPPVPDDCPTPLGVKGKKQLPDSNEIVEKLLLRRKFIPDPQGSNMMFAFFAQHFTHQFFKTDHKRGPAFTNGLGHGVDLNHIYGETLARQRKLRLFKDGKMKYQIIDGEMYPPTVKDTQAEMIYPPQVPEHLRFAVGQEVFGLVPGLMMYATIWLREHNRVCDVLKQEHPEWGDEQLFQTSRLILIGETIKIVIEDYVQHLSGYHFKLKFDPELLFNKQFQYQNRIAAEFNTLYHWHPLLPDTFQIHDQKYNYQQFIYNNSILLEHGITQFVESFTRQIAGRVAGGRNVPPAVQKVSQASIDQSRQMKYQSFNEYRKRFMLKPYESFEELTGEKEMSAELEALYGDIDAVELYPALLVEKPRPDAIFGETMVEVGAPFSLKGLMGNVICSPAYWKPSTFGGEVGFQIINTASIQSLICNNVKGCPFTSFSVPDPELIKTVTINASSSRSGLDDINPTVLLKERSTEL
T8 sequence (P08172 whole entry): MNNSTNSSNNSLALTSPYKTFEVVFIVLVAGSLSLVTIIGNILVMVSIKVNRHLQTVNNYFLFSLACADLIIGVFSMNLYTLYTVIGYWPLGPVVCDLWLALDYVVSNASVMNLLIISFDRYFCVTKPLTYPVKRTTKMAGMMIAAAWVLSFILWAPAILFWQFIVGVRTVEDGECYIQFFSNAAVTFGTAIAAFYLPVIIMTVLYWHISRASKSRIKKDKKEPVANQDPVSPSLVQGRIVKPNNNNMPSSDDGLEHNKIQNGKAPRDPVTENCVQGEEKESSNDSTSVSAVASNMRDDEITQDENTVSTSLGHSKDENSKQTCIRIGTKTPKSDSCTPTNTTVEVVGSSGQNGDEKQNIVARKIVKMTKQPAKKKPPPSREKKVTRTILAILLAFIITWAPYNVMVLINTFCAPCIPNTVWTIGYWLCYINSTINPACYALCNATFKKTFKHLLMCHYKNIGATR
T2 sequence (P35348 whole entry): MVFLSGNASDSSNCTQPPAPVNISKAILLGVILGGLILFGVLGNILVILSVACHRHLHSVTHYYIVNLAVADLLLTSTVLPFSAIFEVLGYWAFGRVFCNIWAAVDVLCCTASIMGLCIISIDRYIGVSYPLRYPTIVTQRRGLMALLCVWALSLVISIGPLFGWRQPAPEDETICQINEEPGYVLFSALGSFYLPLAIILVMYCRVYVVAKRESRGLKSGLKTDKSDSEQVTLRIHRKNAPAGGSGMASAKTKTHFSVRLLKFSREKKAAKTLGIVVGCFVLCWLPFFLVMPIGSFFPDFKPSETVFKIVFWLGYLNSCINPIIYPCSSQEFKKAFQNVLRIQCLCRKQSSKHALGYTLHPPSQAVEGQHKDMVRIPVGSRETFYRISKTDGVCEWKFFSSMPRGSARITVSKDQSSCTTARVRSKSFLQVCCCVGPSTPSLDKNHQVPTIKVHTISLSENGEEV
T6 sequence (P20309 whole entry): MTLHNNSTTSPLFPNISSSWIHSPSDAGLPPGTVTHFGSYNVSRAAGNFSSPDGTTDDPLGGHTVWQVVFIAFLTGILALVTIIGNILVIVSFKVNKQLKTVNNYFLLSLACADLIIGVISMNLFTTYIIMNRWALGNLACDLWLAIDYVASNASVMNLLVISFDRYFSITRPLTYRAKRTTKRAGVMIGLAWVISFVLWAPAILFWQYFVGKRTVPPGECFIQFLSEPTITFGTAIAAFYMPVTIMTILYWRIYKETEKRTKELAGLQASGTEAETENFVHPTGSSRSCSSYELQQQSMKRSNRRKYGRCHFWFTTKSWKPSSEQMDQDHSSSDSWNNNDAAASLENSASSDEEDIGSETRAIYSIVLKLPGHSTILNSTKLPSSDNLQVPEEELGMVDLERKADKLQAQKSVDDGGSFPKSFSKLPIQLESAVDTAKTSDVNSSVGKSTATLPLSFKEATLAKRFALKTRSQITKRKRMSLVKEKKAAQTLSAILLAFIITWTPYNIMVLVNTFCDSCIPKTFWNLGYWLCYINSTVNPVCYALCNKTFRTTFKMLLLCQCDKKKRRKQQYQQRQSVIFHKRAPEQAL
T3 sequence (P08913 whole entry): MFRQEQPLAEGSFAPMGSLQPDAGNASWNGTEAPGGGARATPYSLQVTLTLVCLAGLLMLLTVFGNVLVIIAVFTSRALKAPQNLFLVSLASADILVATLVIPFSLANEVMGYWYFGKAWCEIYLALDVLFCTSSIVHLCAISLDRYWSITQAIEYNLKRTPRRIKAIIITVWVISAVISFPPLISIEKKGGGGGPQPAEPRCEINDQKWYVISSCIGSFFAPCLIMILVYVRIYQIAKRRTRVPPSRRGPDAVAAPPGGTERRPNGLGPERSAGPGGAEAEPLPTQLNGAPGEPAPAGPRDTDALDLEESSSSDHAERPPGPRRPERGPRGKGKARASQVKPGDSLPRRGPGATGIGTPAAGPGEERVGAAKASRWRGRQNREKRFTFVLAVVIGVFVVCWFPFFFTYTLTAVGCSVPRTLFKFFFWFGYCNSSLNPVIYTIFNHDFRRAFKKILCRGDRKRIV
T4 sequence (P11229 whole entry): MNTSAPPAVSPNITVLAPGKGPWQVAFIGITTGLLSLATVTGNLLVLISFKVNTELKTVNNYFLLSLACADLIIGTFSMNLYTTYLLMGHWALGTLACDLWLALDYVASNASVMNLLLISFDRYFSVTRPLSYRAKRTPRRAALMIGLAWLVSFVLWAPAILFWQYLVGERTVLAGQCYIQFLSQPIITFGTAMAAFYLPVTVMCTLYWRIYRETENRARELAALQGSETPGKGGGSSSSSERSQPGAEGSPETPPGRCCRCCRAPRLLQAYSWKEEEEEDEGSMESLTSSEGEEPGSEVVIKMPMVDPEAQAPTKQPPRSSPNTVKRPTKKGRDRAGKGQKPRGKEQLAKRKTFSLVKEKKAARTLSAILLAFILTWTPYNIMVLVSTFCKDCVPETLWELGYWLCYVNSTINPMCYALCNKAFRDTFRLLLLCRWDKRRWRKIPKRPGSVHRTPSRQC
Sequence of COX1 (P23219 24-599): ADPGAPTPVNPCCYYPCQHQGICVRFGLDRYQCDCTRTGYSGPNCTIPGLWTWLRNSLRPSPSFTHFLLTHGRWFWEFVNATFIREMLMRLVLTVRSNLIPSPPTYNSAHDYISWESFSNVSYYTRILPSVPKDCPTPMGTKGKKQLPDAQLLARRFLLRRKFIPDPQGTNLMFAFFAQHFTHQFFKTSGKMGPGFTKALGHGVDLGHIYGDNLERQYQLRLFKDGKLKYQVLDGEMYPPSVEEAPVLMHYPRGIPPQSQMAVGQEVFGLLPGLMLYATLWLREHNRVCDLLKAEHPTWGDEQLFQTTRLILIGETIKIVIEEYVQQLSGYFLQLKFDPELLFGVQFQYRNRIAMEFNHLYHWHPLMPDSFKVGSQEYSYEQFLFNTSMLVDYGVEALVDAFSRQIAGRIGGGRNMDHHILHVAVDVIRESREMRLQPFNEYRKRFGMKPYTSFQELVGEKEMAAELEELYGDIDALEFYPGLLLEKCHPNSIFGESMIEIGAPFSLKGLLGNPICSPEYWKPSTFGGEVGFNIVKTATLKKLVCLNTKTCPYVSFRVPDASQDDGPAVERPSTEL

## C[N+]1([O-])CCN(C2=Nc3cc(Cl)ccc3Nc3ccccc32)CC1 [CNO, clozapine-N-oxide]
[1]; ratio of EC50 values
  times less potent than CLZ at hM4Di: ~20 times
  times less potent than Cmpd-21 at hM4Di: approximately 2.7 times
[1]; reduction of Ca2+ oscillation frequency, hM4Di-transduced rat primary neurons, Hill fit, read-out: half maximal effective concentration (EC50) at hM4Di
  EC50: 8.1 nM
[2]
  competitive inhibition of ligand binding: over 50%
[3]
  EC50: 6 nM
[4]
  inhibition: < 20%
[5]
  competitive inhibition of ligand binding: over 50%
[6]
  competitive inhibition of ligand binding: over 50%
[7]; CNO 3.5 or 10 mg/kg i.p., 10 min before test, vs vehicle
  behavioural changes in 5-CSRTT parameters: did not produce any significant behavioural changes in most 5-CSRTT parameters
[7]; CNO highest dose (10 mg/kg) i.p.
  number of perseverative responses: not at the highest dose
[7]; CNO intermediate dose (3.5 mg/kg) i.p., p = 0.0142
  number of perseverative responses: modest increase
[8]
  inhibition: < 20%
[9]
  competitive inhibition of ligand binding: over 50%
[10]; 10 μM compound
  competitive inhibition of ligand binding: over 50%
[10]; bound stated in discussion
  Ki: < 100 nM
[11]; 10 mg/kg CNO
  brain concentration by linear extrapolation: ≤ 70 nM
  free (CSF) level by linear extrapolation: ≤ 30 nM
[11]; 15 min after i.p. 1 mg/kg CLZ
  mean CNO concentration as % of the CLZ concentration in plasma: approximately 1.1%
[11]; [15]
  mean concentration in CSF: 11.2 nM
  mean concentration in brain: 23.8 nM
[11]; [16]
  mean concentration in CSF: 10.8 nM
  mean concentration in brain: 18.5 nM
[11]; [17]
  free level (CSF): ~4.05 nM
  mean concentration in brain: could not be detected
[11]; after i.p. 1 mg/kg CLZ, other than plasma at 15 min
  detection at all other time points and in the other sample types: no CNO was detectable
[12]
  competitive inhibition of ligand binding: over 50%
[13]; 10 μM compound
  competitive inhibition of ligand binding: over 50%
[13]; bound stated in discussion
  Ki: < 100 nM
[14]
  competitive inhibition of ligand binding: over 50%
